From article PMC9436958, “The synthesis of novel thioderivative chalcones and their influence on NF-κB, STAT3 and NRF2 signaling pathways in colorectal cancer cells” (Scientific Reports, 2022)

How the values were obtained:
Type in all cases: cell-based
STAT3 [1] = experiment: qRT-PCR, STAT3 mRNA; conditions: DLD-1 cells; 2, 5 at 5 μM, 4 at 1 μM
Method: (§1) Total RNA from cells was isolated with the GeneMatrix Universal DNA/RNA/Protein Purification Kit (EurX, Poland). For the qRT-PCR analyses, the Maxima SYBR Green I/ROX qPCR Master Mix (2×) (Thermo Fisher Scientific, USA) and the thermal cycler LightCycler (Roche, Germany) were used. The protocol started with 5 min of enzyme activation at 95 °C, followed by 40–50 cycles at 95 °C for 15 s, 56 °C for 20 s, 72 °C for 40 s, and final elongation at 72 °C for 5 min. Melting curve analysis was used for amplicon verification. The expression levels of TATA-box-binding protein (TBP) and porphobilinogen deaminase (PBGD) were used to normalize the data. The Pfaffl comparative method was used to calculate fold change. Primers were designed using Beacon Designer software (the sequences of primers used to analyze genes are listed in Table 2 of the supplementary materials).

p-Akt = experiment: Western blot, p-Akt (Ser 473) protein in cytosolic fraction; conditions: 2, 5 at 5 μM, 4 at 1 μM
Method: (§2) Cytosolic and nuclear extracts were prepared using a Nuclear/Cytosol Fractionation Kit (BioVision Research, USA). Cytosolic extracts (for NF-κBp65, NF-κBp50, COX-2, iNOS, STAT3, c-Myc, Bcl-xl, Nrf2, SOD, GSTP, EGFR, Akt, p-Akt, Keap1, IKKα/β and β-actin) or nuclear extracts (for NF-κBp65, NF-κBp50, STAT3, p-STAT3, Nrf2, p-Nrf2 and lamin) were separated on 7.5%, 10% or 12% SDS–PAGE slab gels. Then, the proteins were transferred to a nitrocellulose Immobilon-P membrane. After blocking for 2 h with 10% skimmed milk, proteins were incubated with primary antibodies against NF-κBp65, NF-κBp50, COX-2, iNOS, STAT3, p-STAT3, c-Myc, Bcl-xl, Nrf2, p-Nrf2, SOD, GSTP, EGFR, Akt, p-Akt, Keap1, IKKα/β, β-actin, and lamin. Alkaline phosphatase (AP)-labeled anti-rabbit IgG, anti-goat IgG, and anti-mouse IgG secondary antibodies (Bio-Rad Laboratories, USA), as well as horseradish peroxidase (HRP)-conjugated anti-mouse IgG (Boster Bio, USA) secondary antibodies were used in the staining reaction. Bands were visualized by the AP Conjugate Substrate Kit NBT/BCIP or the chemiluminescent HRP substrate of the Clarity ECL Kit (Bio–Rad Laboratories, USA). The amount of immunoreactive product in each lane was determined using a ChemiDoc Imaging System (Bio–Rad Laboratories, USA). Values were calculated as relative absorbance units (RQ) per mg of protein and expressed as a percentage of the control.

EGFR = experiment: Western blot, EGFR protein in cytosolic fraction; conditions: 4 at 1 μM
Method: as §2

HCT116 cells [2] = experiment: MTT viability assay, HCT116 cells; conditions: Homo sapiens, HCT-116, range 0.5–100 µM, read-out: IC50, cytotoxicity
Method: (§3) The DLD-1 and HCT116 colorectal carcinoma cell lines were purchased from ECACC. The HaCaT cell line of spontaneously immortalized keratinocytes was purchased from Cell Lines Service (Germany). The cells were cultured in Dulbecco’s Modified Eagle’s Medium (DMEM, Sigma-Aldrich, USA) with the addition of 10% FBS (EURx, Poland) and 1% antibiotic solution (penicillin and streptomycin) (Sigma-Aldrich, USA) at 37 °C in an atmosphere with 95% humidity and 5% CO2.
(§4) The effect of the tested compounds on the viability of DLD-1, HCT116 and HaCaT cells was assessed by the MTT assay according to the standard protocol.

HCT116 cells [3] = experiment: Apoptosis, Annexin V / 7-AAD flow cytometry, HCT116; conditions: 48 h; for induction of apoptosis: increase of early, late and total apoptosis
Method: (§5) Apoptosis was assessed by the detection of phosphatidylserine externalization based on Annexin V staining combined with fluorescent DNA intercalator 7-Aminoactinomycin D (7-AAD) what allowed for the discrimination between early and late apoptotic cells. The analysis was performed by flow cytometry using the Muse Annexin V & Dead Cell Kit (Luminex, USA) and the Muse Cell Analyzer (Merck, Germany), according to the manufacturer’s protocol. Cells were seeded (2 × 10^5 cells per well) in six-well plates and on the following day the analyzed compounds were added. Topotecan (Sigma-Aldrich, USA) was used as a positive control of apoptosis induction. After 48 h cells were collected by trypsinization, stained and after 20 min incubation at room temperature in the dark analyzed by flow cytometry. Three independent experiments were performed. Data were analyzed by Muse 1.5 Analysis Software (Merck, Germany).

[4] = MTT viability assay, normal HaCaT cells; conditions: HaCaT cells (spontaneously immortalized keratinocytes), normal human HaCaT cells, read-out: IC50, cytotoxicity
Method: as §3, §4

DLD-1 cells [5] = experiment: MTT viability assay, DLD-1 cells; conditions: Homo sapiens, range 0.5–100 µM, read-out: IC50, cytotoxicity
Method: as §3, §4

Nrf2 = experiment: Transcription factor ELISA, Nrf2 binding to DNA
Method: (§6) To estimate NF-ΚB (p50 and p65 subunits) STAT3 and Nrf2 activation, enzymatic immunoassays with the Transcription Factor ELISA Kit (TransAM™NF-κB, TransAM™STAT3/TransAM™Nrf2, Active Motif, Carlsbad CA, USA) were used following the manufacturer’s protocol. Briefly, proper consensus-site double-strand oligonucleotides (NF-κB—5′-GGGACTTTCC-3′; STAT3-5’—TTCCCGGAA-3’; Nrf2-5ʹ—[…]-3ʹ) were immobilized on an ELISA plate and incubated for one hour with the nuclear extracts. The activated subunits bound to DNA were recognized with a specific primary antibody and detected with an HRP-conjugated secondary antibody. The number of subunits was determined by spectrophotometry at λ = 450 nm. The number of p50, and p65 subunits, STAT3, as well as the amount of Nrf2 contained in the DNA-binding complex, corresponded to the activated NF-κB, STAT3, or Nrf2 transcription factors.

DLD-1 cells [6] = experiment: Apoptosis, Annexin V / 7-AAD flow cytometry, DLD-1; conditions: 48 h; for induction of apoptosis: mainly early and total apoptotic populations enriched
Method: as §5

Bcl-xl = Bcl-xl expression (qRT-PCR mRNA, Western blot protein); conditions: HCT116 cells, 5 at 5 μM; for Bcl-xl transcription: 4 at 1 μM
Method: as §2, §1

STAT3 [7] = experiment: Transcription factor ELISA, STAT3 binding to DNA; conditions: 2, 5 at 5 μM, 4 at 1 μM; for binding of STAT3 to DNA: HCT116 cells; for decrease in the binding of STAT3 to DNA: nuclear fraction of DLD-1 cells
Method: as §6

[8] = doubled concentration: 4 at 2 μM, 5 at 10 μM
[9] = HCT116 cells, 4 at 1 μM, 2, 5, 6, 7 at 5 μM

Row | Structure (SMILES) | STAT3 gene expression (mRNA) (STAT3 [1]) | phosphorylation of p-Akt (Ser 473) (p-Akt; DLD-1 cells) | phosphorylation of p-Akt (Ser 473) (p-Akt; HCT116 cells) | level of EGFR (EGFR; DLD-1 cells, 2, 5 at 5 μM) | level of EGFR (EGFR; HCT116 cells) | IC50 (HCT116 cells [2]) | late and total apoptosis compared with BAY 11-7082 (5 µM) (HCT116 cells [3]; [8]) | induction of apoptosis (HCT116 cells [3]) | IC50 [4] | IC50 (DLD-1 cells [5]) | Nrf2 binding to a specific nucleotide sequence (ELISA) (Nrf2; [9]) | induction of apoptosis (DLD-1 cells [6]) | Bcl-xl transcription (Bcl-xl) | binding of STAT3 to DNA (STAT3 [7]) | decrease in the binding of STAT3 to DNA (STAT3 [7]) | late and total apoptosis compared with BAY 11-7082 (5 µM) (HCT116 cells [3]; standard concentration: 5 at 5 μM) | Nrf2 binding to a specific nucleotide sequence (ELISA) (Nrf2; DLD-1 cells, 1 at 1 μM, 3, 5, 7, 8 at 5 μM) | total apoptotic cells compared with BAY 11-7082 (5 µM) (DLD-1 cells [6]; 5 in higher concentration) | Bcl-xl protein level (Bcl-xl)
1 | COc1cc(C(=O)/C=C/c2cccc(SC)c2)cc(Br)c1OC [chalcone 4] | decreased | significantly reduced phosphorylation of p-Akt | significantly reduced phosphorylation of p-Akt | significantly decreased the level of EGFR | significantly decreased the level of EGFR | 20 µM | higher percentage of late and total apoptosis than BAY 11-7082 | able to induce apoptosis | 3 µM | 2 µM | statistically significant increase | able to induce apoptosis | decreased Bcl-xl transcription | decreased the binding of STAT3 to DNA | 30% | – | – | – | –
2 | COc1cc(/C=C/C(=O)c2cc(Br)c(SC)c(OC)c2)ccc1SC [chalcone 5] | decreased | significantly reduced phosphorylation of p-Akt | significantly reduced phosphorylation of p-Akt | significantly decreased the level of EGFR | – | 13 µM | higher percentage of late and total apoptosis than BAY 11-7082 | able to induce apoptosis | 14 µM | 11 µM | statistically significant increase | able to induce apoptosis | decreased Bcl-xl transcription | decreased the binding of STAT3 to DNA | 20% | higher percentage of late and total apoptosis than BAY 11-7082 | statistically significant increase | comparable effect | correlated with Bcl-xl protein level
